Measurements published in the NIST ThermoML archive (doi:10.1021/je7003758).

Experiment: xn = mol fraction of the nth substance listed
Details: 298.15 K, Liquid

ClCCCCCl [1,4-dichlorobutane] + CN1CCCC1=O
mass density [kg/m3]
Details	x2 = 0.1039	x2 = 0.2034	x2 = 0.3036	x2 = 0.402	x2 = 0.5025	x2 = 0.5968	x2 = 0.7003	x2 = 0.8008	x2 = 0.8971
100 kPa	1123.8	1114.2	1104.3	1094.4	1084	1073.9	1062.7	1051.4	1040.2
500 kPa	1124.1	1114.6	1104.6	1094.7	1084.2	1074.2	1062.9	1051.6	1040.4
1000 kPa	1124.5	1114.9	1104.9	1095	1084.5	1074.5	1063.2	1051.9	1040.7
1500 kPa	1124.9	1115.2	1105.3	1095.3	1084.8	1074.8	1063.6	1052.2	1041
2000 kPa	1125.2	1115.6	1105.7	1095.7	1085.2	1075.1	1063.8	1052.5	1041.3
2500 kPa	1125.5	1115.9	1106	1096	1085.5	1075.4	1064.1	1052.8	1041.6
2900 kPa	–	–	1106.3	–	–	–	–	–	–
3000 kPa	1125.9	1116.3	–	1096.3	1085.8	1075.7	1064.4	1053	1041.8
3500 kPa	1126.3	1116.6	1106.6	1096.7	1086.1	1076	1064.7	1053.4	1042.1
4000 kPa	1126.7	1117	1107	1097	1086.4	1076.4	1065	1053.6	1042.3
4500 kPa	1127	1117.3	1107.4	1097.3	1086.8	1076.6	1065.3	1053.9	1042.7
4900 kPa	1127.3	–	–	–	–	1076.9	–	–	–
5000 kPa	–	1117.7	1107.7	1097.6	1087.1	–	1065.6	1054.2	1042.9
5500 kPa	1127.7	1118	1108	1098	1087.4	1077.2	1065.9	1054.4	1043.1
5900 kPa	1128.1	–	–	–	1087.7	–	–	–	–
6000 kPa	–	1118.4	1108.3	1098.3	–	1077.6	1066.2	1054.8	1043.5
6500 kPa	1128.4	1118.8	1108.7	1098.6	1088	1077.8	1066.5	1055	1043.7
7000 kPa	1128.8	1119.1	1109	1099	1088.4	1078.2	1066.8	1055.3	1044
7400 kPa	–	–	–	–	–	–	–	–	1044.2
7500 kPa	–	1119.5	1109.4	1099.3	1088.6	1078.5	1067.1	1055.6	–
7600 kPa	1129.2	–	–	–	–	–	–	–	–
7900 kPa	–	–	–	–	1089	–	–	–	–
8000 kPa	1129.5	1119.8	1109.7	1099.6	–	1078.8	1067.4	1055.9	1044.5
8400 kPa	1129.8	–	–	–	–	–	–	–	–
8500 kPa	–	1120.1	1110.1	1099.9	1089.3	1079.1	1067.6	1056.2	1044.8
8900 kPa	1130.2	–	–	–	–	–	–	–	–
9000 kPa	–	1120.5	1110.4	1100.3	1089.6	1079.4	1068	1056.4	1045.1
9400 kPa	–	–	–	–	–	–	–	–	1045.3
9500 kPa	1130.6	1120.8	1110.7	1100.3	1089.9	1079.7	1068.2	1056.7	–
10000 kPa	1131	1121.3	1111.1	1101	1090.3	1080	1068.6	1057.1	1045.6
10500 kPa	1131.4	1121.6	1111.4	1101.3	1090.6	1080.3	1068.9	1057.3	1045.9
11000 kPa	1131.7	1122	1111.8	1101.6	1090.9	1080.6	1069.2	1057.6	1046.1
11500 kPa	1132.1	1122.3	1112.1	1101.9	1091.2	1080.9	1069.4	1057.9	1046.4
11900 kPa	–	–	–	–	–	–	–	–	1046.6
12000 kPa	1132.5	1122.6	1112.4	1102.2	1091.6	1081.2	1069.7	1058.2	–
12400 kPa	–	–	–	–	–	–	–	–	1046.9
12500 kPa	1132.8	1122.9	1112.8	1102.6	1091.9	1081.5	1070	1058.4	–
12900 kPa	–	–	–	–	1092.2	–	–	–	–
13000 kPa	1133.1	1123.3	1113.1	1102.9	–	1081.8	1070.3	1058.7	1047.2
13400 kPa	–	–	–	–	–	–	–	1059	–
13500 kPa	1133.5	1123.6	1113.4	1103.2	1092.5	1082.1	1070.5	–	1047.4
13900 kPa	–	–	1113.7	–	–	–	–	–	–
14000 kPa	1133.8	1124	–	1103.5	1092.8	1082.4	1070.9	1059.2	1047.7
14400 kPa	–	–	–	–	–	–	1071.1	1059.5	–
14500 kPa	1134.2	1124.3	1114	1103.8	1093.1	1082.6	–	–	1048
14900 kPa	–	–	–	–	1093.3	–	–	–	–
15000 kPa	1134.5	1124.7	1114.4	1104.1	–	1083	1071.5	1059.7	1048.3
15400 kPa	–	–	–	–	1093.6	–	–	–	–
15500 kPa	1134.8	1125	1114.7	1104.4	–	1083.3	1071.7	1060	1048.6
15900 kPa	–	–	–	–	–	–	–	–	1048.8
16000 kPa	1135.2	1125.3	1115.1	1104.8	1094	1083.5	1072	1060.3	–
16400 kPa	–	–	–	1105	–	–	–	–	–
16500 kPa	1135.5	1125.6	1115.4	–	1094.2	1083.8	1072.2	1060.6	1049
16900 kPa	–	–	1115.6	–	–	–	–	–	–
17000 kPa	1135.9	1126	–	1105.4	1094.5	1084.1	1072.5	1060.8	1049.3
17500 kPa	1136.2	1126.3	1116	1105.7	1094.8	1084.4	1072.8	1061.1	1049.5
18000 kPa	1136.5	1126.6	1116.3	1106	1095.1	1084.7	1073.1	1061.3	1049.8
18500 kPa	1136.9	1126.9	1116.6	1106.2	1095.4	1085	1073.3	1061.6	1050.1
19000 kPa	1137.3	1127.3	1117	1106.6	1095.8	1085.3	1073.7	1061.9	1050.3
19500 kPa	1137.6	1127.6	1117.3	1106.9	1096	1085.6	1074	1062.2	1050.6
20000 kPa	1138	1128	1117.7	1107.4	1096.5	1086	1074.5	1062.4	1050.9
